Read-outs that look alike come from different tables or passages of the source.

The subject of data set [1] is HCT116 cells. The class given is cell-based, human. On the procedure:
FIGS. 1A, 1B and 1C NSAID induce apoptosis in human colorectal cancer cells. In FIG. […] Cells were collected at the indicated times, fixed and stained with Hoechst 33258 (23). The cells were counted and those with fragmented nuclei were scored as apoptotic. In FIG. 1B, HCT116 and SW480 cells were treated with SUS or INDO for 60 hours, harvested and stained as described above. Cells treated with SUS or INDO show the hallmarks of apoptosis.
This death appeared to be apoptotic, as it was accompanied by nuclear condensation and fragmentation (FIG. 1B) and exposure of phosphatidylserine groups on the cell surface, two hallmarks of apoptosis (11, 12).

The subject of data set [2] is HCT116 cells. The experiment in a line: Arachidonic acid levels, release of 3H-AA into the media. In kind it is cell-based, human. The conditions noted are these: for fold induction at 50 µM: 50 μM SUS, read-out: arachidonic acid levels relative to control; for increase in arachidonic acid: apoptosis-inducing doses of SUS. On the procedure: (§1) FIGS. 4A, 4B, 4C, 4D, 4E and 4F. The role of arachidonic acid in NSAID-mediated apoptosis. […] HCT116 and SW480 cells were treated with the indicated concentrations of SUS or INDO. Arachidonic acid (AA) levels were determined by measuring release of ^3 H-AA into the media as previously described (18). Data are indicated as the mean of three replicates with the error bars corresponding to the standard deviation. In addition, the nature of the released radiolabeled material was evaluated by thin layer chromatography as previously described (28). […] HCT116 and SW480 cells were incubated with ^3 H-choline chloride (0.5 mCi ml^-1, 80 Ci mmol^-1, New England Nuclear) for 48 hours. After labeling, cells were washed with HBSS (Gibco) and treated with SUS or INDO for the indicated times. Sphingomyelin measurements were performed using the bacterial sphingomyelinase method as previously described (18). Sphingomyelin levels at each time point are plotted as a percentage of that in untreated control cells. For each point, the mean of at least two independent experiments is presented with the error bars corresponding to the standard deviations. […] SW480 cells were treated with 200 μM arachidonic acid (AA), SUS (SUS) or behenic acid as a control fatty acid (FA) as indicated. […] SW480 cells were treated with suboptimal doses (100 μM) of arachidonic acid (AA), SUS (SUS), or both (AA+SUS) as indicated. After 48 hours of treatment, apoptosis and ceramide increases were assessed as described for FIGS. 1 and 3, respectively. Ceramide increases (left axis) were expressed as fold increases relative to untreated cells. Apoptosis (right axis) was expressed as percent apoptotic cells minus percent apoptotic cells in untreated cells (5.6%+/-2.4). Data are indicated as the mean of duplicates with the error bars corresponding to the standard deviation.
(§2) Arachidonic acid is known to stimulate neutral sphingomyelinase (18), which catalyzes the conversion of sphingomyelin to ceramide. We therefore considered the possibility that inhibition of COX activity might lead to increases in arachidonic acid, the substrate for COX. To test this hypothesis, we first determined whether SUS stimulated arachidonic acid accumulation. In both SW480 and HCT 116 cells, apoptosis-inducing doses of SUS increased arachidonic acid by 2 to 3 fold at 24 hours and by approximately 5 fold at 48 hours (FIGS. 4A and 4B). The arachidonic acid increase following SUS treatment was as great as that following treatment with mellitin, a known activator of phospholipase A2. Arachidonic acid levels in HCT116 cells increased 3.5 fold one hour after treatment with 1 μM mellitin. Likewise, arachidonic acid levels increased 2.9 fold in SW480 cells one hour after mellitin treatment. Arachidonic acid (AA) levels were determined by measuring release of ^3 H-AA into the media as previously described (18). The nature of released radiolabeled material was evaluated by thin layer chromatography analysis as previously described (28).

Data set [3] concerns SW480 cells. Put plainly: cells. In kind it is cell-based, human. The conditions noted are these: for increase in arachidonic acid: apoptosis-inducing doses of SUS. On the procedure: as §1, §2
Data set [4] deals with HCT116 cells. Put plainly: Sphingomyelin levels, bacterial sphingomyelinase method. The class given is cell-based, human. On the procedure:
as §1
(§3) To test whether the increased ceramide was associated with evidence of augmented sphingomyelinase activity, we measured total sphingomyelin levels after SUS treatment. […] We also measured neutral sphingomyelinase activity in lysates from the treated cells and no differences were found. Neutral sphingomyelinase activity was assayed as described (18). After cell lysis, protein concentrations were determined using the Bradford method (Bio-Rad) and […] cellular protein was used in each assay. Neutral sphingomyelinase activity was determined by measuring the rate of hydrolysis of ^14 C-labelled sphingomyelin (Amersham). SW480 and HCT116 cell lines were treated with SUS (50, 200, and 600 μM) for 6 to 24 hours.

Data set [5] has as its system SW480 cells. Described as above. The class given is cell-based, human. On the procedure: as §1, §3
The subject of data set [6] is immortalized human keratinocytes (HaCat). Put plainly: Ceramide levels in immortalized keratinocytes. The class given is cell-based. The conditions noted are these: 48 h, read-out: increase in ceramide levels. The method, then: Ceramide levels were measured using the Escherichia coli diacylglycerol (DAG) kinase assay as previously described (30) with the following modifications. After the initial lipid extraction, phases were broken by adding 2 ml chloroform and 2 ml 1M NaCl and lipids were washed with 1M NaCl prior to drying under nitrogen (32, 33). After solubilization, samples were sonicated for 15 seconds. The DAG reaction was performed for 30 minutes at 25° C. in a 100 μl reaction volume with 3.5 μg DAG kinase (Calbiochem) and […] γ^32 P-ATP (Dupont NEN, 6000 Ci/mmol). After extraction of the labeled lipids, the lower chloroform phase was washed with 1% HCl prior to drying under nitrogen. The solvent mixture for thin layer chromatography was chloroform:acetone:methanol:acetic acid:water (10:4:3:2:1). Samples were quantitated using a Phosphorimager (Molecular Dynamics).
This ability of SUS is not limited to colon cancer cells; primary fibroblasts and immortalized keratinocytes can increase ceramide levels and undergo apoptosis in response to SUS. […] Forty-eight hours after exposure to 200 μM SUS greater than 70% of the cells had undergone apoptosis and ceramide levels were 8.2 and 4.7 fold increased in HDF and HaCat cells, respectively. […]

`CSc1ccc(/C=C2/C(C)=C(CC(=O)O)c3cc(F)ccc32)cc1` [SUS, sulindac sulfide]: the apoptosis entry is reported as “the majority of cells had not yet undergone apoptosis” in the data set with HCT116 cells [1] (200 μM SUS, 16 hours) and “underwent apoptosis” in the data set on HCT116 cells [1] (SUS 125 μM, with or without 10 μM CHX, 48 hours). In addition, the cell death entry in the data set on HCT116 cells [1] (SUS 50 μM) is “induced neither”. The fold induction at 50 µM worked out at 0.9 in the data set on HCT116 cells [2] (Homo sapiens, HCT-116, 8 hours); 1.05 in the data set on HCT116 cells [2] (Homo sapiens, HCT-116, 16 hours); 1.14 in the data set on HCT116 cells [2] (Homo sapiens, HCT-116, 24 hours). The fold induction at 200 µM in the data set with HCT116 cells [2] (Homo sapiens, HCT-116, 200 μM SUS, 16 hours, read-out: increase in arachidonic acid) stood at 5.1; in the data set on SW480 cells [3] (Homo sapiens, SW480, 200 μM SUS, 16 hours, read-out: increase in arachidonic acid) it was 3.4; in data set [6] it was 4.7. Also, the “increase in arachidonic acid” value in the data set on HCT116 cells [2] (24 hours) was 2 to 3 fold; in the data set on HCT116 cells [2] (48 hours) it was “approximately 5 fold”; with SW480 cells [3] (24 hours) it was 2 to 3 fold; in the data set with SW480 cells [3] (48 hours), “approximately 5 fold”. The “decrease in sphingomyelin levels” value in the data set with HCT116 cells [4] (48 hours after SUS treatment) was 40-50%; in the data set with HCT116 cells [4] (suboptimal doses of SUS), “inadequate to decrease sphingomyelin levels”; in the data set on SW480 cells [5] (48 hours after SUS treatment), 40-50%; in the data set with SW480 cells [5] (suboptimal doses of SUS), “inadequate to decrease sphingomyelin levels”.
